Reference: ChEMBL document CHEMBL1124077, “Photoaffinity labeling adenosine A1 receptors with an antagonist 125I-labeled aryl azide derivative of 8-phenylxanthine” (J Med Chem, 1988)

Assays:
[1] = target: T1, Adenosine receptor A1 (Rattus norvegicus) (UniProt P25099); test: Bmax value against A1 receptor
T1 sequence (whole entry): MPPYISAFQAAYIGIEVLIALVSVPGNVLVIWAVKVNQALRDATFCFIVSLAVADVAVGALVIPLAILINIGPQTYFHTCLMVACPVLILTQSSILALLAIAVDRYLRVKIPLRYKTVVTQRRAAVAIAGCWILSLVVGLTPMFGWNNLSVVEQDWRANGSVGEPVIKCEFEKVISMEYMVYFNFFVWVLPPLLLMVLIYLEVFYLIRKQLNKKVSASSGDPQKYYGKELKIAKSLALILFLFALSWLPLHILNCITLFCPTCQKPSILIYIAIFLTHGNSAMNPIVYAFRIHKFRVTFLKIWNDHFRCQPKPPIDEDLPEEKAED

Adenosine receptor A1 [2] = target: T2, Adenosine receptor A1 (Rattus norvegicus, UniProt P25099); test: Binding affinity towards adenosine A1 receptor in rat brain membrane(KD); assay type: tissue-based
T2 sequence (P25099 whole entry): T1 sequence (whole entry)

Adenosine receptor A1 [3] = target: T2, Adenosine receptor A1; test: Inhibition of photolabeling of 34 kDa polypeptide in adenosine A1 receptor

Row | Bmax [1] | Kd (Adenosine receptor A1 [2]) | IC50 (Adenosine receptor A1 [3]) | SMILES
1 | 485 fmol/mg | 0.8 nM |  | CCCn1c(=O)c2nc(-c3ccc(OCC(=O)O)cc3)[nH]c2n(Cc2ccc(N)c(I)c2)c1=O
2 | 485 fmol/mg | 0.8 nM |  | CCCn1c(=O)c2nc(-c3ccc(OCC(=O)O)cc3)[nH]c2n(CCc2ccc(N)c(I)c2)c1=O
3 |  | 1.2 nM |  | CCCn1c(=O)c2nc(-c3ccc(OCC(=O)O)cc3)[nH]c2n(CCc2ccc(N=[N+]=[N-])c(I)c2)c1=O
4 |  |  | 16 nM | CCCn1c(=O)c2nc(-c3ccc(OCC(=O)O)cc3)[nH]c2n(CCc2ccc(N)cc2)c1=O
